US20230227878A1, “PROCESS FOR PREPARING SURFACTANT” (Enza Biotech AB, priority 2020, published 2023)

How the values were obtained:
[1] = Essential oils solubility; format: physicochemical; conditions: 7 wt % solubilizer in water, room temperature, after 5 hours
Description: 13 wt % solution of alkyl polyglucoside in distilled water was prepared and separately mixed with lemon oil, lavender oil, tea tree oil and patchouli oil at a ratio of 1:7 (w/w), and then the mixtures were added dropwise under stirring to water to a final concentration of 1 wt % essential oil and 7 wt % alkyl polyglucoside. […] The mixtures were then left at room temperature for 5 hours and observed for phase separation. Lauryl glucoside was used as a surfactant control with both lemon oil and lavender oil.

[2] = Foam measurement (Dynamic Foam Analyser, Kruss); format: physicochemical; conditions: 50 ml of 1.5 wt % solution, stirred at 3,000 rpm for 2 minutes
Description: Foaming was evaluated using a Dynamic Foam Analyser from Kruss. A volume of 50 ml of 1.5 wt % alkyl polyglucoside solution was added to the cylinder. […] PEG-80 sorbitan laurate and cocamidopropyl betaine were used as surfactant controls.

Row | Substance | Essential oils solubility: lavender oil mixture appearance / phase separation ([1]; 1 wt % lavender oil) | Essential oils solubility: lemon oil mixture appearance / phase separation ([1]; 1 wt % lemon oil) | Foam height [2] [mm]
1 | lauryl glucoside | white and cloudy, and had phase separated | white and cloudy, and had phase separated | –
2 | cocamidopropyl betaine | – | – | 78
